Source: paper PMC5218480 (PLoS ONE, 2017)

System: MV-4-11 cells
Assay: Gene expression microarray analysis (Affymetrix PrimeView) and GSEA
Format: cell-based, human
Parameters: RFU PODN (11730768_x_at) / Fold change /veh PODN (11730768_x_at) / RFU LINC00158 (11744669_a_at) / Fold change /veh LINC00158 (11744669_a_at) / RFU DUSP10 (11751237_a_at) / Fold change /veh DUSP10 (11751237_a_at) / RFU ID3 (11757404_x_at) / Fold change /veh ID3 (11757404_x_at) / RFU PLEKHG5 (11737974_s_at) / Fold change /veh PLEKHG5 (11737974_s_at) / RFU LRRC4B (11730491_at) / Fold change /veh LRRC4B (11730491_at) / RFU GIMAP4 (11747438_a_at) / Fold change /veh GIMAP4 (11747438_a_at) / RFU KRT8 (11758183_x_at) / Fold change /veh KRT8 (11758183_x_at) / RFU CNN1 (11734310_a_at) / Fold change /veh CNN1 (11734310_a_at) / RFU VPS37D (11726825_at) / Fold change /veh VPS37D (11726825_at) / RFU C10orf10 (11716522_x_at) / Fold change /veh C10orf10 (11716522_x_at) / RFU KIR2DL2 /// KIR2DL4 /// KIR2DL5A /// KIR2DL5B /// KIR2DS1 /// KIR2DS2 /// KIR2DS3 /// KIR2DS4 /// KIR3DL3 /// KIR3DL3 /// KIR3DS1 (11738374_at) / Fold change /veh KIR2DL2 /// KIR2DL4 /// KIR2DL5A /// KIR2DL5B /// KIR2DS1 /// KIR2DS2 /// KIR2DS3 /// KIR2DS4 /// KIR3DL3 /// KIR3DL3 /// KIR3DS1 (11738374_at) / RFU C1QL1 (11718748_at) / Fold change /veh C1QL1 (11718748_at) / RFU TMPRSS4 (11747572_a_at) / Fold change /veh TMPRSS4 (11747572_a_at) / RFU HAMP (11756126_x_at) / Fold change /veh HAMP (11756126_x_at) / RFU RNFT2 (11725882_a_at) / Fold change /veh RNFT2 (11725882_a_at) / RFU NR4A2 (11747474_a_at) / Fold change /veh NR4A2 (11747474_a_at) / RFU ABCC12 (11746883_a_at) / Fold change /veh ABCC12 (11746883_a_at) / RFU TMEM136 (11760407_x_at) / Fold change /veh TMEM136 (11760407_x_at) / RFU CLDN22 /// WWC2 (11732394_at) / Fold change /veh CLDN22 /// WWC2 (11732394_at) / RFU HLA-DPB1 (11760878_x_at) / Fold change /veh HLA-DPB1 (11760878_x_at) / RFU SPINT1 (11716480_a_at) / Fold change /veh SPINT1 (11716480_a_at) / RFU GAP43 (11754022_s_at) / Fold change /veh GAP43 (11754022_s_at) / RFU A4GNT (11735810_at) / Fold change /veh A4GNT (11735810_at) / RFU PRB3 (11715151_x_at) / Fold change /veh PRB3 (11715151_x_at) / RFU TUBB4B (11761932_at) / Fold change /veh TUBB4B (11761932_at) / RFU CAPN14 (11732068_a_at) / Fold change /veh CAPN14 (11732068_a_at) / RFU TMCC2 (11721928_a_at) / Fold change /veh TMCC2 (11721928_a_at) / RFU IRGQ (11745062_a_at) / Fold change /veh IRGQ (11745062_a_at) / RFU FAM174B (11720279_a_at) / Fold change /veh FAM174B (11720279_a_at) / RFU TMPRSS4 (11748680_a_at) / Fold change /veh TMPRSS4 (11748680_a_at) / RFU FAM212B (11763350_a_at) / Fold change /veh FAM212B (11763350_a_at) / RFU PLEKHG5 (11743358_a_at) / Fold change /veh PLEKHG5 (11743358_a_at) / RFU ZSCAN30 (11745921_a_at) / Fold change /veh ZSCAN30 (11745921_a_at) / RFU CMKLR1 (11741424_a_at) / Fold change /veh CMKLR1 (11741424_a_at) / RFU LOC101060620 /// MAPK8IP1 (11723275_at) / Fold change /veh LOC101060620 /// MAPK8IP1 (11723275_at) / RFU SPTSSB (11747773_x_at) / Fold change /veh SPTSSB (11747773_x_at) / RFU PRSS12 (11739890_at) / Fold change /veh PRSS12 (11739890_at) / RFU BIN1 (11741810_x_at) / Fold change /veh BIN1 (11741810_x_at) / RFU WNT11 (11732464_a_at) / Fold change /veh WNT11 (11732464_a_at) / RFU C10orf10 (11716521_a_at) / Fold change /veh C10orf10 (11716521_a_at) / RFU C5orf56 (11738089_at) / Fold change /veh C5orf56 (11738089_at) / RFU CYB561 (11721691_x_at) / Fold change /veh CYB561 (11721691_x_at) / RFU ANKRD19P (11752326_a_at) / Fold change /veh ANKRD19P (11752326_a_at) / RFU OR2T12 /// OR2T33 /// OR2T8 (11738714_s_at) / Fold change /veh OR2T12 /// OR2T33 /// OR2T8 (11738714_s_at) / RFU VCAN (11748164_a_at) / Fold change /veh VCAN (11748164_a_at) / RFU JSRP1 (11732532_at) / Fold change /veh JSRP1 (11732532_at) / RFU KRTAP10-11 (11738290_x_at) / Fold change /veh KRTAP10-11 (11738290_x_at) / RFU MYO3A (11730013_a_at) / Fold change /veh MYO3A (11730013_a_at) / RFU EBF3 (11725865_a_at) / Fold change /veh EBF3 (11725865_a_at) / RFU CAMK2N1 (11719241_x_at) / Fold change /veh CAMK2N1 (11719241_x_at) / RFU C5orf56 (11738088_a_at) / Fold change /veh C5orf56 (11738088_a_at) / RFU OLFML3 (11715873_a_at) / Fold change /veh OLFML3 (11715873_a_at) / RFU LOC100653217 /// NTM (11731650_a_at) / Fold change /veh LOC100653217 /// NTM (11731650_a_at) / RFU MAPK11 (11762145_a_at) / Fold change /veh MAPK11 (11762145_a_at) / RFU FIZ1 (11724087_x_at) / Fold change /veh FIZ1 (11724087_x_at) / RFU OASL (11726364_x_at) / Fold change /veh OASL (11726364_x_at) / RFU SOX15 (11748057_x_at) / Fold change /veh SOX15 (11748057_x_at) / RFU CD79A (11719716_a_at) / Fold change /veh CD79A (11719716_a_at) / RFU HIST1H1D (11736915_at) / Fold change /veh HIST1H1D (11736915_at) / RFU CASKIN2 (11723855_a_at) / Fold change /veh CASKIN2 (11723855_a_at) / RFU LOC730098 (11760151_x_at) / Fold change /veh LOC730098 (11760151_x_at) / RFU OR4N2 (11742367_at) / Fold change /veh OR4N2 (11742367_at) / RFU PRRT2 (11749266_a_at) / Fold change /veh PRRT2 (11749266_a_at) / RFU SNX32 (11753110_a_at) / Fold change /veh SNX32 (11753110_a_at) / RFU CDHR5 (11726645_a_at) / Fold change /veh CDHR5 (11726645_a_at) / RFU RCAN1 (11760418_a_at) / Fold change /veh RCAN1 (11760418_a_at) / RFU FAM167A (11723789_a_at) / Fold change /veh FAM167A (11723789_a_at) / RFU FAM26E (11764081_at) / Fold change /veh FAM26E (11764081_at) / RFU ISYNA1 (11749810_s_at) / Fold change /veh ISYNA1 (11749810_s_at) / RFU ACY1 (11761880_at) / Fold change /veh ACY1 (11761880_at) / RFU 11764098_at / Fold change /veh 11764098_at / RFU SAMD14 (11745864_x_at) / Fold change /veh SAMD14 (11745864_x_at) / RFU NPB (11741838_a_at) / Fold change /veh NPB (11741838_a_at) / RFU TMPRSS6 (11731388_a_at) / Fold change /veh TMPRSS6 (11731388_a_at) / RFU KRTAP10-2 (11738614_at) / Fold change /veh KRTAP10-2 (11738614_at) / RFU ARHGAP8 /// PRR5-ARHGAP8 (11727945_x_at) / Fold change /veh ARHGAP8 /// PRR5-ARHGAP8 (11727945_x_at) / RFU KRTAP5-7 /// NADSYN1 (11734609_at) / Fold change /veh KRTAP5-7 /// NADSYN1 (11734609_at) / RFU RASL12 (11751679_a_at) / Fold change /veh RASL12 (11751679_a_at) / RFU CDKN2B (11736163_a_at) / Fold change /veh CDKN2B (11736163_a_at) / RFU PRF1 (11729649_at) / Fold change /veh PRF1 (11729649_at) / RFU, ZNF638 /// ZNF638-IT1 / Fold change vs veh, ZNF638 /// ZNF638-IT1 / RFU, PANK3 / Fold change vs veh, PANK3 / RFU, SH3YL1 / Fold change vs veh, SH3YL1 / RFU, ZEB2 / Fold change vs veh, ZEB2 / RFU, NRIP1 / Fold change vs veh, NRIP1 / RFU, PTTG1IP / Fold change vs veh, PTTG1IP / RFU, CAPN2 / Fold change vs veh, CAPN2 / RFU, MED14 / Fold change vs veh, MED14 / RFU, SNORA58 / Fold change vs veh, SNORA58 / RFU, C1orf63 / Fold change vs veh, C1orf63 / RFU, LRRFIP1 / Fold change vs veh, LRRFIP1 / RFU, NDUFAF7 / Fold change vs veh, NDUFAF7 / RFU, SLC12A2 / Fold change vs veh, SLC12A2 / RFU, IBTK / Fold change vs veh, IBTK / RFU, ESF1 / Fold change vs veh, ESF1 / Fold change vs veh, TMEM50B / RFU, TAOK1 / Fold change vs veh, TAOK1 / RFU, ACBD3 / Fold change vs veh, ACBD3 / RFU, TMA16 / Fold change vs veh, TMA16 / RFU, RWDD3 / Fold change vs veh, RWDD3 / RFU, BCAT1 / Fold change vs veh, BCAT1 / RFU, EDEM3 / Fold change vs veh, EDEM3 / RFU, TMEM33 / Fold change vs veh, TMEM33 / RFU, WDR75 / Fold change vs veh, WDR75 / RFU, AHCTF1 / Fold change vs veh, AHCTF1 / RFU, TFRC / Fold change vs veh, TFRC / RFU, ZDHHC17 / Fold change vs veh, ZDHHC17 / RFU, NOM1 / Fold change vs veh, NOM1 / RFU, ARL8B / Fold change vs veh, ARL8B / RFU, ZBTB11 / Fold change vs veh, ZBTB11 / RFU, TAMM41 / Fold change vs veh, TAMM41 / RFU, KIAA1704 /// LOC100996395 / Fold change vs veh, KIAA1704 /// LOC100996395 / RFU, ING1 / Fold change vs veh, ING1 / RFU, TRMT61B / Fold change vs veh, TRMT61B / RFU, FUBP3 / Fold change vs veh, FUBP3 / RFU, TP53 / Fold change vs veh, TP53 / RFU, TNKS2 / Fold change vs veh, TNKS2 / RFU, ZFP14 / Fold change vs veh, ZFP14 / RFU, ACTR2 / Fold change vs veh, ACTR2 / RFU, PPP3R1 / Fold change vs veh, PPP3R1 / RFU, PIK3R1 / Fold change vs veh, PIK3R1 / RFU, HNRNPA1 / Fold change vs veh, HNRNPA1 / RFU, RNF170 / Fold change vs veh, RNF170 / RFU, ZNF28 / Fold change vs veh, ZNF28 / RFU, RNGTT / Fold change vs veh, RNGTT / RFU, OGT / Fold change vs veh, OGT / RFU, BRD1 / Fold change vs veh, BRD1 / RFU, MARS / Fold change vs veh, MARS / RFU, ZNF655 / Fold change vs veh, ZNF655 / RFU, FAHD1 / Fold change vs veh, FAHD1 / RFU, BDP1 / Fold change vs veh, BDP1 / RFU, LRRCC1 / Fold change vs veh, LRRCC1 / RFU, ARID1A / Fold change vs veh, ARID1A / RFU, ZNF146 / Fold change vs veh, ZNF146 / RFU, ZNF330 / Fold change vs veh, ZNF330 / RFU, GPN3 / Fold change vs veh, GPN3 / RFU, C9orf123 / Fold change vs veh, C9orf123 / RFU, N4BP2L2 / Fold change vs veh, N4BP2L2 / RFU, ARFIP1 / Fold change vs veh, ARFIP1 / RFU, FAM179B / Fold change vs veh, FAM179B / RFU, BCL10 / Fold change vs veh, BCL10 / RFU, UHRF1BP1L / Fold change vs veh, UHRF1BP1L / RFU, BET1 / Fold change vs veh, BET1 / RFU, CNOT2 / Fold change vs veh, CNOT2 / RFU, ZNF268 / Fold change vs veh, ZNF268 / Fold change vs veh, ZNF507 / RFU, DGCR2 / Fold change vs veh, DGCR2 / RFU, WDSUB1 / Fold change vs veh, WDSUB1 / Fold change vs veh, HSP90B1 /// MIR3652 / RFU, ADSS / Fold change vs veh, ADSS / RFU, GK / Fold change vs veh, GK / RFU, ZNF148 / Fold change vs veh, ZNF148 / RFU, TAF9 / Fold change vs veh, TAF9 / RFU, SLC1A5 / Fold change vs veh, SLC1A5 / RFU, SLMO2 / Fold change vs veh, SLMO2 / RFU, ABCC4 / Fold change vs veh, ABCC4 / RFU, LOC101060439 /// RAP1B / Fold change vs veh, LOC101060439 /// RAP1B / RFU, RFX7 / Fold change vs veh, RFX7 / RFU, GTPBP10 / Fold change vs veh, GTPBP10 / RFU, CNEP1R1 / Fold change vs veh, CNEP1R1 / RFU, BIVM-ERCC5 /// ERCC5 / Fold change vs veh, BIVM-ERCC5 /// ERCC5 / RFU, ILF3 / Fold change vs veh, ILF3 / RFU 11762660_at / Fold change /veh 11762660_at / RFU VCAN (11757783_s_at) / Fold change /veh VCAN (11757783_s_at) / RFU DDX43 (11728927_at) / Fold change /veh DDX43 (11728927_at) / RFU KRT8 (11758188_x_at) / Fold change /veh KRT8 (11758188_x_at) / RFU NKD1 (11759106_at) / Fold change /veh NKD1 (11759106_at) / RFU SRD5A1 (11742802_a_at) / Fold change /veh SRD5A1 (11742802_a_at) / RFU TPSAB1 /// TPSB2 (11721975_s_at) / Fold change /veh TPSAB1 /// TPSB2 (11721975_s_at) / RFU GSTM3 (11746129_a_at) / Fold change /veh GSTM3 (11746129_a_at) / RFU IL23R (11737362_x_at) / Fold change /veh IL23R (11737362_x_at) / RFU TMEM51 (11727254_a_at) / Fold change /veh TMEM51 (11727254_a_at) / RFU PIWIL2 (11732686_x_at) / Fold change /veh PIWIL2 (11732686_x_at) / RFU ORM1 (11744905_x_at) / Fold change /veh ORM1 (11744905_x_at) / RFU CCDC152 (11743942_at) / Fold change /veh CCDC152 (11743942_at) / RFU ECM1 (11717891_a_at) / Fold change /veh ECM1 (11717891_a_at) / RFU IL23R (11748794_a_at) / Fold change /veh IL23R (11748794_a_at) / RFU TNFAIP8L3 (11732012_x_at) / Fold change /veh TNFAIP8L3 (11732012_x_at) / RFU MBOAT4 (11741988_at) / Fold change /veh MBOAT4 (11741988_at) / RFU 11764193_at / Fold change /veh 11764193_at / RFU TMEM53 (11763286_at) / Fold change /veh TMEM53 (11763286_at) / RFU MAGEB2 (11727129_at) / Fold change /veh MAGEB2 (11727129_at) / RFU TMEM200A (11744735_a_at) / Fold change /veh TMEM200A (11744735_a_at) / RFU CCDC152 (11751479_a_at) / Fold change /veh CCDC152 (11751479_a_at) / RFU FAM211A (11726209_a_at) / Fold change /veh FAM211A (11726209_a_at) / RFU RGS16 (11746705_a_at) / Fold change /veh RGS16 (11746705_a_at) / RFU VCAN (11755009_s_at) / Fold change /veh VCAN (11755009_s_at) / RFU RHOB (11743442_s_at) / Fold change /veh RHOB (11743442_s_at) / RFU RGS16 (11720943_a_at) / Fold change /veh RGS16 (11720943_a_at) / RFU RGS16 (11720944_at) / Fold change /veh RGS16 (11720944_at) / RFU, VPS4B / Fold change vs veh, VPS4B / RFU, CREB1 / Fold change vs veh, CREB1 / RFU, DNAJC13 / Fold change vs veh, DNAJC13 / RFU, GNAQ / Fold change vs veh, GNAQ / RFU, CDK5R1 / Fold change vs veh, CDK5R1 / RFU, ZRANB3 / Fold change vs veh, ZRANB3 / RFU, CUL4A / Fold change vs veh, CUL4A / RFU, CCNY / Fold change vs veh, CCNY / RFU, UFL1 / Fold change vs veh, UFL1 / RFU, COG3 / Fold change vs veh, COG3 / RFU, DIAPH2 / Fold change vs veh, DIAPH2 / RFU, SKA2 / Fold change vs veh, SKA2 / RFU, AFF3 / Fold change vs veh, AFF3 / RFU, LMF1 / Fold change vs veh, LMF1 / RFU, IPO11 / Fold change vs veh, IPO11 / RFU, DFFB / Fold change vs veh, DFFB / RFU, FOXP1 / Fold change vs veh, FOXP1 / RFU, CARD8 / Fold change vs veh, CARD8 / RFU, STRN3 / Fold change vs veh, STRN3 / RFU, ADK / Fold change vs veh, ADK / RFU, RASSF2 / Fold change vs veh, RASSF2 / RFU, WIPF1 / Fold change vs veh, WIPF1 / RFU, LARP1B / Fold change vs veh, LARP1B / RFU, RASA1 / Fold change vs veh, RASA1 / RFU, RB1 / Fold change vs veh, RB1 / RFU, PPFIA1 / Fold change vs veh, PPFIA1 / RFU, MAT2A / Fold change vs veh, MAT2A / RFU, CCT5 / Fold change vs veh, CCT5 / RFU, WDR92 / Fold change vs veh, WDR92 / RFU, CUX1 / Fold change vs veh, CUX1 / RFU, TTC7A / Fold change vs veh, TTC7A / RFU, TMEM135 / Fold change vs veh, TMEM135 / RFU, DEPTOR / Fold change vs veh, DEPTOR / RFU, CPM / Fold change vs veh, CPM / RFU, DNAJB6 / Fold change vs veh, DNAJB6 / RFU, CACNA2D3 / Fold change vs veh, CACNA2D3 / RFU, DTX4 / Fold change vs veh, DTX4 / RFU, TFCP2 / Fold change vs veh, TFCP2 / RFU, GMCL1 /// GMCL1P1 / Fold change vs veh, GMCL1 /// GMCL1P1 / RFU, AEBP2 / Fold change vs veh, AEBP2 / RFU, SNHG1 /// SNORD22 /// SNORD25 /// SNORD26 /// SNORD27 /// SNORD28 /// SNORD29 /// SNORD31 / Fold change vs veh, SNHG1 /// SNORD22 /// SNORD25 /// SNORD26 /// SNORD27 /// SNORD28 /// SNORD29 /// SNORD31 / Fold change (Aza/veh), C12orf56 (ProbeSet 11735607_a_at) / Fold change (ACY-1035/veh), C12orf56 (ProbeSet 11735607_a_at) / Fold change (Aza/veh), FGFR1OP (ProbeSet 11751329_s_at) / Fold change (ACY-1035/veh), FGFR1OP (ProbeSet 11751329_s_at) / Fold change (Aza/veh), VPS36 (ProbeSet 11739960_a_at) / Fold change (ACY-1035/veh), VPS36 (ProbeSet 11739960_a_at) / RFU SYPL1 (11715823_x_at) / Fold change /veh SYPL1 (11715823_x_at) / RFU IGFBP7 (11715501_s_at) / Fold change /veh IGFBP7 (11715501_s_at) / RFU REEP3 (11722064_at) / Fold change /veh REEP3 (11722064_at) / RFU IGLL1 (11728026_x_at) / Fold change /veh IGLL1 (11728026_x_at): dose or concentration left out as unconfirmed
Settings: MV-4-11 cells, 48 hours

With Nc1ccc(-c2cccs2)cc1NC(=O)c1ccc2c(c1)cc(C1CC1)n2CCN1CCOCC1 [ACY-1035] the “RFU PRF1 (11729649_at)” value was 18.67 RFU.
